Laboratory results as given in patent US20240024403A1, “Compositions and Methods for Managing Weight” (Unigen, Inc., priority 2012, published 2024).
“Also recorded” adds a separate entry of the source.

Experiment: High fat diet induced obesity (DIO) mouse model
Format: in vivo, C57CL/6J mice
Parameters: NSAH (sum) [NASH score]: scale not given here
Conditions: for Total Body Weight / Body Weight: in g (unit assumed)
Procedure: C57CL/6J mice aged 4-6 weeks (Korea Research Institute of Bioscience & Biotechnology, Ohchang, Korea) were housed in Polycarbonate cages (five mice per cage) in a room with a 12 hr:12 hr light-dark cycle and an ambient temperature of 24° C. All the mice were fed a commercial chow diet for 1 week after arrival in the animal facility. Mice were then divided into normal and obesity groups and fed with normal diet (ND) and high fat diets (HFD) respectively. The HFD group was divided into multiple treatment groups: a high fat diet vehicle group (HFD), an orlistat (purchased as OTC drug Alli®) positive control treatment group (ORI, 40 mg/kg of animal weight, 2 times/day) and optionally a sibutramine positive control treatment group (10 mg/kg, 1 time/day). The HFD contained 340 g of fat/kg of HFD (310 g lard plus 30 g soybean oil; Harlan Laboratories, USA). The HFD was formulated to provide 60% of the total energy generated by the diet from fat by replacing carbohydrate energy with lard and soybean oil, whereas the normal diet (ND) group was fed a diet providing only 18% of the total diet energy from fat(Harlan Laboratories, USA).
Body weight was measured once each week and feed intake was measured twice per week. At the end of the experimental period, following a 12 hr. fasting period, the animals were anesthetized with ether, and blood was drawn from the abdominal vein. Liver and kidney and adipose tissues (epididymal, retroperitoneal, perirenal adipose tissues) were removed from each animal, rinsed with physiological saline, and weighed. Serum concentrations of glucose, total cholesterol, triglycerides, and LDL-cholesterol were determined using automatic analyzer (INTEGRA 400, Roche, Germany). Statistical significance of test results was measured using the Student's t-test.

[1] = mice fed a high fat diet, Mutamba fractions 250 mg/kg oral 2 times per day, mean
[2] = orlistat 40 mg/Kg/day oral, 8 weeks
[3] = orlistat 40 mg/kg oral, 7 weeks
[4] = orlistat 40 mg/kg, 2 times/day, listed as orlistat
[5] = score 0-3, orlistat 40 mg/kg oral
[6] = week 1, DIO mice, oral twice daily, mg/kg/day: ORI 40, Combo (Composition 1A) 800, Magnolia 100, Yerba Mate 500, Morus 200
[7] = week 1, DIO mice, combination (5:1) 1200 mg/kg twice a day by gavage, group mean
[8] = week 1, mice fed a high fat diet, Mutamba fractions 250 mg/kg oral 2 times per day, mean
[9] = week 2, DIO mice, oral twice daily, mg/kg/day: ORI 40, Combo (Composition 1A) 800, Magnolia 100, Yerba Mate 500, Morus 200
[10] = week 2, DIO mice, combination (5:1) 1200 mg/kg twice a day by gavage, group mean
[11] = week 2, mice fed a high fat diet, Mutamba fractions 250 mg/kg oral 2 times per day, mean
[12] = week 3, DIO mice, oral twice daily, mg/kg/day: ORI 40, Combo (Composition 1A) 800, Magnolia 100, Yerba Mate 500, Morus 200

CCCCCCCCCCC[C@@H](C[C@@H]1OC(=O)[C@H]1CCCCCC)OC(=O)[C@H](CC(C)C)NC=O [ORI, orlistat]
FER (Food efficiency ratio) (mice fed a high fat diet, FER = body weight gain (g/day)/food intake (g/day), Mutamba fractions 250 mg/kg oral 2 times per day, mean): 0.034 | Body Weight Gain [1]: 0.093 g/day | Food Intake [1]: 2.769 g/day | Absolute Organ Weight: Epididymal Fat [2]: 2.03 g | Absolute Organ Weight: Liver [2]: 1.19 g | Absolute Organ Weight: PeriRenal Fat [2]: 0.29 g | Absolute Organ Weight: Retroperitoneal Fat [2]: 0.5 g | Absolute Organ Weight: Total Fat (sum of three fat pads) [2]: 2.82 g | Food Efficiency Ratio (FER) [2]: −0.001 | Food Intake (average) [2]: 3.147 g/day | Relative Organ Weight: Epididymal Fat [2]: 0.05 | Relative Organ Weight: Liver [2]: 0.03 | Relative Organ Weight: PeriRenal Fat [2]: 0.01 | Relative Organ Weight: Retroperitoneal Fat [2]: 0.01 | Relative Organ Weight: Total Fat [2]: 0.07 | Weight Gain (average) [2]: -0.004 g/day | Food Efficiency Ratio (FER) [3]: 0.000 | Food Intake (average per day) [3]: 3.195 g/day | Weight Gain (average per day) [3]: 0.000 g/day | blood biochemistry parameters vs HFD group (orlistat 40 mg/kg, 2 times/day): statistically significant decrease in LDL-cholesterol; also recorded: statistically significant decreases in total cholesterol, LDL-cholesterol, and fasting glucose; also recorded: statistically significant decreases in ALT and LDL-cholesterol; also recorded: statistically significant decrease in ALT | body weight gain vs HFD group (orlistat 40 mg/kg, 2 times/day): greatest change in weight gain between week 2 and week 3; also recorded: statistically significant decreases in body weight gains each week after the first week of treatment; also recorded: statistically significant decreases in body weight gain across all weeks of the study; also recorded: statistically significant decreases in body weight gain from week 1 through to week 7; also recorded: statistically significant decreases in weight gain from week 1 through to week 8 | body weight gain vs HFD group [4]: significant reduction in body weight gain at 7 weeks | weight gain per day, food intake per day, food efficiency ratio (FER) vs HFD group [4]: significantly reduced FER | Liver pathology: Hepatocellular ballooning (0-2) (score 0-2, orlistat 40 mg/kg oral): 0.67 | Liver pathology: Lobular Inflammation (0-3) [5]: 1.33 | Liver pathology: Steatosis (0-3) [5]: 0.67 | NSAH (sum) [NASH score] (sum of scores, orlistat 40 mg/kg oral): 2.67 | Total Body Weight (week 0, DIO mice, oral twice daily, mg/kg/day: ORI 40, Combo (Composition 1A) 800, Magnolia 100, Yerba Mate 500, Morus 200): 40.22 | Total Body Weight (week 0, DIO mice, combination (5:1) 1200 mg/kg twice a day by gavage, group mean): 38.40 | Total Body Weight (week 0, ORI 40 mg/kg, DIO mice (Table 52)): 39.96 | Total Body Weight (week 0, ORI 40 mg/kg, DIO mice): 42.76 | Body Weight (week 0, mice fed a high fat diet, Mutamba fractions 250 mg/kg oral 2 times per day, mean): 39.76 | Weight Gain [6]: −2.24 | Total Body Weight [6]: 37.98 | Body Weight Gain (week 1, DIO mice, SIB 10 mg/kg, ORI 40 mg/kg, Mutamba extract 32 (G1) 1000 mg/kg/day oral, mean): −2.59 | Body Weight Gain (week 1, DIO mice, SIB 10 mg/kg, ORI 40 mg/kg, Mutamba extract 33-2 G1 1000 mg/kg, mean): −3.05 | Weight Gain (week 1, DIO mice, combination (1:1) 2000 mg/kg twice a day, group mean): −3.20 | Weight Gain [7]: −3.20 | Total Body Weight [7]: 35.20 | Total Body Weight (week 1, ORI 40 mg/kg, DIO mice (Table 52)): 37.37 | Total Body Weight (week 1, ORI 40 mg/kg, DIO mice): 38.73 | Body Weight Gain (week 1, ORI 40 mg/kg, mice fed high fat diet): −4.00 | Body Weight Gain [8]: −3.05 | Body Weight [8]: 36.71 | Weight Gain (week 1, orlistat 40 mg/kg oral): −5.43 | Weight Gain [9]: −6.14 | Total Body Weight [9]: 34.08 | Body Weight Gain (week 2, DIO mice, SIB 10 mg/kg, ORI 40 mg/kg, Mutamba extract 32 (G1) 1000 mg/kg/day oral, mean): −2.90 | Body Weight Gain (week 2, DIO mice, SIB 10 mg/kg, ORI 40 mg/kg, Mutamba extract 33-2 G1 1000 mg/kg, mean): −2.81 | Weight Gain (week 2, DIO mice, combination (1:1) 2000 mg/kg twice a day, group mean): −4.88 | Weight Gain [10]: −4.88 | Total Body Weight [10]: 33.58 | Total Body Weight (week 2, ORI 40 mg/kg, DIO mice (Table 52)): 37.05 | Total Body Weight (week 2, ORI 40 mg/kg, DIO mice): 35.09 | Body Weight Gain (week 2, ORI 40 mg/kg, mice fed high fat diet): −7.38 | Body Weight Gain [11]: −2.81 | Body Weight [11]: 36.95 | Weight Gain (week 2, orlistat 40 mg/kg oral): −6.69 | Weight Gain [12]: −4.91 | Total Body Weight [12]: 35.32 | Body Weight Gain (week 3, DIO mice, SIB 10 mg/kg, ORI 40 mg/kg, Mutamba extract 32 (G1) 1000 mg/kg/day oral, mean): −2.55 | Body Weight Gain (week 3, DIO mice, SIB 10 mg/kg, ORI 40 mg/kg, Mutamba extract 33-2 G1 1000 mg/kg, mean): −2.63 | Weight Gain (week 3, DIO mice, combination (1:1) 2000 mg/kg twice a day, group mean): −3.34 | Weight Gain (week 3, DIO mice, combination (5:1) 1200 mg/kg twice a day by gavage, group mean): −3.34
